# Measurements reported in US20050209278A1, “Piperidinyl- and piperazinyl-sulfonylmethyl hydroxamic acids and their use as protease inhibitors” (priority 2002, published 2005).
# Columns and labels:
# Type in all cases: biochemical
# [1] = molecular target: T1, MMP-14 (Homo sapiens, UniProt P50281); experiment: MMP-14 inhibition (in vitro Ki); details: Table 9; read-out: MMP-14 Ki (IC-50)
# T1 construct: The catalytic domain enzyme was expressed in E. coli inclusion bodies, solubilized in urea; made in house
# [2] = molecular target: T2, MMP-9 (Homo sapiens, UniProt P14780); experiment: MMP-9 inhibition (in vitro Ki); details: Table 9; read-out: MMP-9 Ki (IC-50)
# T2 construct: made in house; host or cells: MMP-9-transfected HT1080 cells (spent media)
# [3] = molecular target: T3, MMP-1 (Homo sapiens, UniProt P03956); experiment: MMP-1 inhibition (in vitro Ki); details: Table 9; read-out: MMP-1 Ki (IC-50)
# T3 construct: made in house; host or cells: MMP-1-transfected HT-1080 cells (spent media)
# T3 sequence (P03956 100-469): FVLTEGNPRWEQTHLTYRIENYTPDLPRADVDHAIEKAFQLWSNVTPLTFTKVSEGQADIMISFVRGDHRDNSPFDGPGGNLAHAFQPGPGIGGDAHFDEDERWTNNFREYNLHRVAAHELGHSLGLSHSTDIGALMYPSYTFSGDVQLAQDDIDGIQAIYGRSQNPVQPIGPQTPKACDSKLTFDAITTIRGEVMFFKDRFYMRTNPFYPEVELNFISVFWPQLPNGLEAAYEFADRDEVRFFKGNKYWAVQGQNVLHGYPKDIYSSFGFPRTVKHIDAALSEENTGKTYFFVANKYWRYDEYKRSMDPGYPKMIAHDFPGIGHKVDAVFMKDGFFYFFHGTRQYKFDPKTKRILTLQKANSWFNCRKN
# [4] = molecular target: T4, MMP-2 (Homo sapiens, UniProt P08253); experiment: MMP-2 inhibition (in vitro Ki); details: Table 9; read-out: MMP-2 Ki (IC-50)
# T4 construct: made in house; host or cells: MMP-2-transfected p2AHT2 cells
# T4 sequence (P08253 110-660): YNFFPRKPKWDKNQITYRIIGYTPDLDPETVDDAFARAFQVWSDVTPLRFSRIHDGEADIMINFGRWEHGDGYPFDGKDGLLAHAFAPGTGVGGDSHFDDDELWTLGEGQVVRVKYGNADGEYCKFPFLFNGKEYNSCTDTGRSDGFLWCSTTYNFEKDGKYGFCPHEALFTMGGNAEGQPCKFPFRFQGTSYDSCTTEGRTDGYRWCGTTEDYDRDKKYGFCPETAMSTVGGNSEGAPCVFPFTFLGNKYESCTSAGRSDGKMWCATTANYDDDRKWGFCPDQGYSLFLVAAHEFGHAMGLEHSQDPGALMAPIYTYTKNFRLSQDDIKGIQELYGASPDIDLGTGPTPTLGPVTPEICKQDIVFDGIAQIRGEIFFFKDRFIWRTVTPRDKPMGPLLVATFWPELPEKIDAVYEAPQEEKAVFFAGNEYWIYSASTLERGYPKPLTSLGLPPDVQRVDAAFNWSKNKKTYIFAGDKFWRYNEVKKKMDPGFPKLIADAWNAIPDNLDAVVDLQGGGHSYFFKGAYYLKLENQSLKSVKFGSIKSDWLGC
# [5] = molecular target: T5, MMP-13 (Homo sapiens, UniProt P45452); experiment: MMP-13 inhibition (in vitro Ki); details: Table 9; read-out: MMP-13 Ki (IC-50)
# T5 construct: made in house; host or cells: baculovirus / insect cells
# T2 sequence (P14780 107-707 limits assumed): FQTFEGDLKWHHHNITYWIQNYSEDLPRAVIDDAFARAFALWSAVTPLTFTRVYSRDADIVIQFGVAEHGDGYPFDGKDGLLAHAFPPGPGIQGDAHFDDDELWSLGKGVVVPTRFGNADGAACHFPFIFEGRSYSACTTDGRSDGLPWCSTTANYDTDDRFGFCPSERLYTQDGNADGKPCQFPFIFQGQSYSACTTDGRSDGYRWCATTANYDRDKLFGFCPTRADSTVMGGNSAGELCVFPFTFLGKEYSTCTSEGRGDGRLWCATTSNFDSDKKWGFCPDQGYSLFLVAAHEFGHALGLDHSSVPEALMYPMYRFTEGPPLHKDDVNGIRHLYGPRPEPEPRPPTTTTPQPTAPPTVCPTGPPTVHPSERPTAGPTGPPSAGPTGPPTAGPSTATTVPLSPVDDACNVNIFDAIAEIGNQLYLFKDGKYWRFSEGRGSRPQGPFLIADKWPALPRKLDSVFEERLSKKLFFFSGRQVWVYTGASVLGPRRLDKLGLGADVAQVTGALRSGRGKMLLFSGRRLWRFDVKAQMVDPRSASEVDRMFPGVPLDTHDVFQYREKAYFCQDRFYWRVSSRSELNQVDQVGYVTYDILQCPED
SMILES,Ki [1] [nM],Ki [2] [nM],Ki [3] [nM],Ki [4] [nM],Ki [5] [nM]
COCCC(CCOC)(C(=O)NO)S(=O)(=O)N1CCC(c2ccc(CCC(F)(F)C(F)(F)F)cn2)CC1 [Example A107],3370,0.86,4440,2.89,0.85
O=C(NCCCCC1CCN(S(=O)(=O)C2(C(=O)NO)CCOCC2)CC1)C(=O)c1cccs1 [Example A108],4520,55.5,630,3.25,0.16
COCC(=O)N1CCC(C(=O)NO)(S(=O)(=O)N2CCC(c3ccc(CCC(F)(F)C(F)(F)F)cn3)CC2)CC1 [Example A109],3720,26.8,8300,0.6,0.42
O=C(NO)C1(S(=O)(=O)N2CCC(c3cnc(CCC4CC4)cn3)CC2)CCOCC1 [Example A110],9210,1.03,> 10000,7.78,4.4
CN(CC1CCCCC1)C(=O)CCCC1CCN(S(=O)(=O)C2(C(=O)NO)CCOCC2)CC1 [Example A111],> 10000,1710,> 10000,364,9.09
CN(CC1CCCCC1)C(=O)CCCCC1CCN(S(=O)(=O)C2(C(=O)NO)CCOCC2)CC1 [Example A112],> 10000,1820,708,190,0.92
O=C(NO)C1(S(=O)(=O)N2CCC(c3ccc(CCC(F)(F)C(F)(F)F)cn3)CC2)Cc2ccccc2C1 [Example A113],4410,0.8,9730,1.28,0.34
O=C(NO)C1(S(=O)(=O)N2CCN(c3nnn(Cc4ccccc4)n3)CC2)CCOCC1 [Example A114],1150,0.94,5410,0.38,0.8
O=C(NCCCCC1CCN(S(=O)(=O)C2(C(=O)NO)CCOCC2)CC1)C1(c2ccccc2)CC1 [Example A115],> 10000,1350,> 10000,98.5,0.81
O=C(NO)C1(S(=O)(=O)N2CCC(c3ccc(/C=C/C(F)(F)C(F)(F)F)cn3)CC2)CCOCC1 [Example A116],331,0.14,1700,0.19,0.08
CC(C)CCc1cnc(C2CCN(S(=O)(=O)C3(C(=O)NO)CCOCC3)CC2)cn1 [Example A117],> 10000,0.96,> 10000,9.91,2.8
O=C(CO)N1CCC(C(=O)NO)(S(=O)(=O)N2CCC(c3ccc(CCC(F)(F)C(F)(F)F)cn3)CC2)CC1 [Example A118],3600,0.4,6600,0.56,0.18
O=C(CCCCN1CCN(S(=O)(=O)C2(C(=O)NO)CCOCC2)CC1)N1CCCCC1 [Example A119],> 10000,> 10000,> 10000,> 10000,154
O=C(NO)C1(S(=O)(=O)N2CCC(c3ccc(CCC4CCC4)cn3)CC2)CCOCC1 [Example A120],1280,0.16,4910,0.42,0.15
CC(C)(C(=O)NO)S(=O)(=O)N1CCC(c2ccc(CCC(F)(F)C(F)(F)F)cn2)CC1 [Example A122],2600,0.27,3100,0.37,0.12
O=C(NO)C1(S(=O)(=O)N2CCC(c3ccc(CCC4CC4)cn3)CC2)CCOCC1 [Example A123],1280,0.08,5160,0.58,0.43
